A short description of series [1]: Solubility in water (water/2-propanol recrystallization). The format is physicochemical. Conditions: crude solids, ambient temperature. The protocol:
The crude solids (0.5 g) were dissolved in water (1 mL) and 2-propanol (5 mL) was charged. The resulting slurry was stirred at room temperature for 1 hour, and then isolated by filtration. The solids were washed with 2-propanol (to cover the solids) and air dried to afford 0.1 g (20% recovery yield).

The conditions of series [2]: in vivo; with temozolomide, doxorubicin, docetaxel; cited from earlier work.
Series [3] can be described thus: Solubility in toluene (hot toluene trituration). The format is physicochemical. The following applies: crude solids digested in hot toluene for 1 hour. As to the method: The crude solids (1 g) were digested in hot toluene (15 mL) for 1 hour. The slurry was cooled to room temperature and the solids were isolated by filtration. The solids were dried at 80° C., under vacuum, to afford 0.86 g (86%). […] Based on this observation, in the following experiment toluene was further tried as an anti-solvent.

Series [4] concerns PP2A. Conditions: used alone (Lu et al. 2009a); cited from earlier work.

With `CN1CCN(C(=O)C2C(C(=O)O)[C@H]3CC[C@@H]2O3)CC1` (stereo in doubt) [LB100, 3-(4-methylpiperazine-1-carbonyl)-7-oxabicyclo[2.2.1] heptane-2-carboxylic acid], the solubility in water result in series [1] is reported as “high solubility in water”. In addition, in series [2], the “potentiation of anti-tumor activity of standard cytotoxic anti-cancer drugs” value is given as “significantly potentiates in vivo” and the “toxicity in combination with cytotoxic anti-cancer drugs” value was “without observable increase in toxicity”. Moreover, the solubility in toluene entry in series [3] was “low solubility of the material in toluene”. Further, the anti-cancer activity result in series [4] is “has anti-cancer activity when used alone”.

(Values after patent US9994584B2, “Process of synthesizing 3-(4-methylpiperazine-1-carbonyl)-7-oxabicyclo[2.2.1] heptane-2-carboxylic acid” (LIXTE BIOTECHNOLOGY, INC., priority 2014, dated 2018).)
